Results as given in publication PMC11891828, “Olfactory Receptor Responses to Pure Odorants in Drosophila melanogaster” (The European Journal of Neuroscience, 2025).
Values belong to the compound of their own block, whether it stands above or below them.

Tests used:
Assay in all cases: in vivo GCaMP6m calcium imaging of antennal neurons, GC-purified odorant
[1] = biological target: T1, Or56a (Drosophila melanogaster, UniProt Q9V8Y7); settings: activation; dose series extended to 10^-12 dilution
T1 construct: native receptor in situ in antennal olfactory sensory neurons of living flies; Or56a-Gal4 drives UAS-GCaMP6m reporter; with Odorant receptor coreceptor
T1 sequence (Q9V8Y7 1-419): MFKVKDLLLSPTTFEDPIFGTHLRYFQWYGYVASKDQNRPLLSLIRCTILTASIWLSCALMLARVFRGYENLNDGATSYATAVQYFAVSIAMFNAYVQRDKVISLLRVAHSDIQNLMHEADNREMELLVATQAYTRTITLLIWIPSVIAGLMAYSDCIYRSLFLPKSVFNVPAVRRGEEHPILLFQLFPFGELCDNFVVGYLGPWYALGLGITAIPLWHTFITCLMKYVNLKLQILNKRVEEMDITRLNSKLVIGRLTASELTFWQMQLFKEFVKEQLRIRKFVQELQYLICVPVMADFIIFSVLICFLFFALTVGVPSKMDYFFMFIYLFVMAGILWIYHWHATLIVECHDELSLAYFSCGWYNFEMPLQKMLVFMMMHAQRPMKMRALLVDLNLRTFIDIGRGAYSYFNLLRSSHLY
T1 sequence (Q9VNB5 1-486 partner): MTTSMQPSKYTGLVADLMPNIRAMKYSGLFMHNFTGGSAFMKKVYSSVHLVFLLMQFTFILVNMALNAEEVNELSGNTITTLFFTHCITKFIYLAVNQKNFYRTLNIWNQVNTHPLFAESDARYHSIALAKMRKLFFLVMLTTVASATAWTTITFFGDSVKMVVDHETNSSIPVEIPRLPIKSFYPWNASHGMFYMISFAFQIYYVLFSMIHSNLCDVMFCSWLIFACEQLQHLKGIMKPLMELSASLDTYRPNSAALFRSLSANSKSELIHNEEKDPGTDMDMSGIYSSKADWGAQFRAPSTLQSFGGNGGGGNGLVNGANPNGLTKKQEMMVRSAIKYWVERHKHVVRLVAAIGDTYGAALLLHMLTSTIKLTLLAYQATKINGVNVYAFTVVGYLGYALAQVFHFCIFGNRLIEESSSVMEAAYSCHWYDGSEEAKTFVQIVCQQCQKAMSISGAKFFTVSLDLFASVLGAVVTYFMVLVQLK

[2] = biological target: T2, Or10a (Drosophila melanogaster, UniProt Q9VYZ1); settings: activation; headspace of mineral-oil dilutions 10^-6, 10^-4, 10^-2
T2 construct: native receptor in situ in antennal olfactory sensory neurons of living flies; Or10a-Gal4 drives UAS-GCaMP6m reporter; with Odorant receptor coreceptor
T2 sequence (Q9VYZ1 1-406): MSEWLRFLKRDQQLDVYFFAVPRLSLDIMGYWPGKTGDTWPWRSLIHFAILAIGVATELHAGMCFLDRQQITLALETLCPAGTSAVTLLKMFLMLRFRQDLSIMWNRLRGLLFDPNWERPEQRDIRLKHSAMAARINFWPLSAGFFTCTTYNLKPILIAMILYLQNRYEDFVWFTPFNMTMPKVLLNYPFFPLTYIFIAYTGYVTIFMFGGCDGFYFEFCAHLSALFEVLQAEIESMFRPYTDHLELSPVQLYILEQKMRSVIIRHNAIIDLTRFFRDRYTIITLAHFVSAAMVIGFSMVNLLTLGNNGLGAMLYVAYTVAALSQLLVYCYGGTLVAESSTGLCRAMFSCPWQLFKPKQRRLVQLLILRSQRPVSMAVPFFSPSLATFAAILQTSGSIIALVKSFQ
T2 sequence (Q9VNB5 1-486 partner): T1 sequence (Q9VNB5 1-486 partner)

[3] = biological target: T3, Or92a (Drosophila melanogaster, UniProt Q9VDM1); settings: activation, biphasic; polar GC column; n = 4
T3 construct: native receptor in situ in antennal olfactory sensory neurons of living flies; Or92a-Gal4 drives UAS-GCaMP6m reporter; with Odorant receptor coreceptor
T3 sequence (Q9VDM1 1-408): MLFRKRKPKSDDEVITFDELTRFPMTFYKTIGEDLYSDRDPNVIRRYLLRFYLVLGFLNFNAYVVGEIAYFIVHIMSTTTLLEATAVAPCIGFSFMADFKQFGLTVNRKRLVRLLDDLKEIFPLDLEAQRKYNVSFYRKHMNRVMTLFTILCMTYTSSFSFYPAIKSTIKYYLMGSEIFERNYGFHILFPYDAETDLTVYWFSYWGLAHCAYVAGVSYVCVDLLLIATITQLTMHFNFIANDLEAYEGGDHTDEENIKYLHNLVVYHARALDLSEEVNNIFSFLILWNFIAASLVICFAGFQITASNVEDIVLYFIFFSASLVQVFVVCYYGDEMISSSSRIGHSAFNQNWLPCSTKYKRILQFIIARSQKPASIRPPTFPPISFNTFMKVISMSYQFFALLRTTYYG
T3 sequence (Q9VNB5 1-486 partner): T1 sequence (Q9VNB5 1-486 partner)

[4] = biological target: T4, Or47a (Drosophila melanogaster, UniProt P81921); settings: activation; headspace of mineral-oil dilutions
T4 construct: native receptor in situ in antennal olfactory sensory neurons of living flies; Or47a-Gal4 drives UAS-GCaMP6m reporter; with Odorant receptor coreceptor
T4 sequence (P81921 1-385): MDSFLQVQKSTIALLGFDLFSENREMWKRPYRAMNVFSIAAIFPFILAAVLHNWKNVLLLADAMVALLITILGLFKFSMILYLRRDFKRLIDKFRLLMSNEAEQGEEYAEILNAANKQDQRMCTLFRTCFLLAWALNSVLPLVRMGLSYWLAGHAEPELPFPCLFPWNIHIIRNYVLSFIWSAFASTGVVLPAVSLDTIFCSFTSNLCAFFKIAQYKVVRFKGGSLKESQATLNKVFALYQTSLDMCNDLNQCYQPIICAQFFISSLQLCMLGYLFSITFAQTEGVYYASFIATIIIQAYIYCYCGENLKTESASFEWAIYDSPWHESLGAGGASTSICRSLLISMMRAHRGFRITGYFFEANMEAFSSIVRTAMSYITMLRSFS
T4 sequence (Q9VNB5 1-486 partner): T1 sequence (Q9VNB5 1-486 partner)

[5] = biological target: T3, Or92a; settings: activation, biphasic; polar GC column; n = 4; remark: listed apart in the source

SMILES: CC1CCCC2(C)CCCCC12O (racemic) [2MNL, (±)-geosmin]
in vivo GCaMP6m calcium imaging of antennal neurons, GC-purified odorant [1]: We found strong responses to geosmin and none to any of the other substances

SMILES: CCOC(=O)c1ccccc1 [2EBM, ethyl benzoate]
in vivo GCaMP6m calcium imaging of antennal neurons, GC-purified odorant [2]: good ligands were methyl benzoate and ethyl benzoate

SMILES: C[C@H](O)[C@@H](C)O [MBDL, meso-2,3-Butanediol]
in vivo GCaMP6m calcium imaging of antennal neurons, GC-purified odorant [3]: the meso isomer, identical to 2R,3S) gave a weak response only

SMILES: COC(=O)c1ccccc1 [MBZM, methyl benzoate]
in vivo GCaMP6m calcium imaging of antennal neurons, GC-purified odorant [2]: good ligands were methyl benzoate and ethyl benzoate

SMILES: COC(=O)c1ccccc1O [MSAM, methyl salicylate]
in vivo GCaMP6m calcium imaging of antennal neurons, GC-purified odorant [2]: The best ligand was methyl salicylate

SMILES: CCCCCOC(C)=O [PACE, pentyl acetate]
in vivo GCaMP6m calcium imaging of antennal neurons, GC-purified odorant [4]: We found strong responses to pentyl acetate (significant to very low concentrations

calcium response [5]: ~ 15%
SMILES: C[C@@H](O)[C@@H](C)O [RBDL, (2R,3R)-(−)-2,3-Butanediol]

calcium response [5]: > 40%
SMILES: C[C@H](O)[C@H](C)O [SBDL, (2S,3S)-(+)-2,3-Butanediol]
